# Source: PubChem BioAssay (NCI)
#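 96-well plates; 48 h exposure; 5 concentrations. Endpoints by linear interpolation between flanking doses. Not reached: highest tested concentration assigned. Here, GI50 denotes the concentration required for 50% inhibition of growth. TGI: total growth inhibition.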 Peptide text beside a SMILES is read from it. * marks the point of attachment. OSu = O=C1CCC(=O)N1O*; OBn = c1ccc(CO*)cc1; Bn = c1ccc(C*)cc1
# Key:
# Assay in all cases: DTP human tumour cell line panel, 48 h
# BT-549 breast = system: BT-549 breast
# CCRF-CEM leukemia = system: CCRF-CEM leukemia
# HOP-62 NSCLC = system: HOP-62 NSCLC
# LOX IMVI melanoma = system: LOX IMVI melanoma
# NCI-H460 lung = system: NCI-H460 lung
# NCI-H522 lung = system: NCI-H522 lung
# SF-295 CNS = system: SF-295 CNS
# SK-MEL-2 melanoma = system: SK-MEL-2 melanoma
# SN12C renal = system: SN12C renal
SMILES,TGI (BT-549 breast) [µM],TGI (CCRF-CEM leukemia) [µM],TGI (HOP-62 NSCLC) [µM],TGI (LOX IMVI melanoma) [µM],TGI (NCI-H460 lung) [µM],TGI (NCI-H522 lung) [µM],TGI (SF-295 CNS) [µM],TGI (SK-MEL-2 melanoma) [µM],TGI (SN12C renal) [µM],GI50 (BT-549 breast) [µM],GI50 (CCRF-CEM leukemia) [µM],GI50 (LOX IMVI melanoma) [µM],GI50 (NCI-H460 lung) [µM],GI50 (SK-MEL-2 melanoma) [µM],GI50 (SN12C renal) [µM],GI50 (NCI-H522 lung) [µM]
Cc1ccc(C2(c3ccc(C)c(O)c3C)CCN(C)CC2)c(C)c1O,> 100,> 100,> 100,> 100,> 100,> 100,> 100,75.9,> 100,–,–,–,–,–,–,–
c1ccc2nn(C3CCCCO3)nc2c1 (configuration not stated),> 100,> 100,> 100,–,> 100,> 100,> 100,> 100,> 100,–,–,–,–,–,–,–
COC1=C(OC)C(=O)C(Cc2c(Cl)nc3n2CCS3)=C(C)C1=O,27.5,8.98,29.1,29.3,30.8,25.4,30.4,32.2,31.3,–,–,–,–,–,–,–
Cc1nn(C(=O)c2ccc(Cl)cc2)c2c1C(c1ccco1)SC(N)=N2 (configuration not stated),> 10,> 10,> 10,> 10,> 10,> 10,> 10,> 10,> 10,–,–,–,–,–,–,–
O=C(CC(=O)Nc1ccccc1Cl)NNC(Sc1ccccc1)c1cc(N=Nc2ccc(Br)cc2)ccc1O (configuration not stated),5.99,6.21,8.67,3.15,2.86,> 10,8.39,> 10,> 10,–,–,–,–,–,–,–
COc1cnnc2c(C)c(-c3ccccc3)nn12,> 100,> 100,> 100,> 100,> 100,> 100,> 100,> 100,> 100,–,–,–,–,–,–,–
O=c1c(S(=O)(=O)Oc2ccccc2)coc2cc(F)ccc12,> 100,> 100,> 100,> 100,> 100,> 100,> 100,> 100,> 100,–,–,–,–,–,–,–
COc1cc(C2c3cc4c(cc3OC(N3CCOCC3)C2C)OCO4)cc(OC)c1OC(C)=O (configuration not stated),> 100,> 100,> 95.5,> 100,> 100,33.2,49,41.1,> 84.2,–,–,–,–,–,–,–
Cc1csc2n(C)c(=O)c3ccccc3[n+]12,> 100,> 100,> 100,> 100,> 100,> 100,> 100,> 100,> 100,–,–,–,–,–,–,–
C/C(=N\NC(=O)N/N=C(\C)c1ccccn1)c1ccccn1,18.2,> 100,> 100,> 100,> 100,> 100,> 100,> 100,> 100,–,–,–,–,–,–,–
Cc1ccc(Nc2nc(NS(=O)(=O)c3cc(C)c(Cl)cc3S)n[nH]2)cc1,> 100,> 100,> 100,> 100,> 100,> 100,> 100,> 100,> 100,–,–,–,–,–,–,–
C=C1[C@H](OCC(C)C)[C@@H](OC(=O)C(C)CC)[C@@H](O)C(C)(C)/C=C/[C@H](C)C(=O)[C@@]2(O)C[C@H](C)[C@H](O)[C@@H]2[C@H]1OC(=O)C(C)CC (some centres not stated),> 20,> 9.76,> 10.5,> 13.3,8.18,> 20,> 16.9,> 15,> 20,–,–,–,–,–,–,–
O=C(NNCc1ccccc1O)c1ccccc1O,–,–,> 100,> 100,–,> 100,17.4,25.8,> 100,–,–,–,–,–,–,–
O=C(NC(CO)CO)c1ccc2cc(C(=O)N3CC(CCl)c4ccc([N+](=O)[O-])cc43)[nH]c2c1 (configuration not stated),> 100,> 100,> 100,> 100,> 100,–,> 100,> 100,> 100,–,–,–,–,–,–,–
CCOC(=O)CCC(NC(=O)c1ccc(NCc2ccc3nc(-c4ccccc4)c(Cl)nc3c2)c2ccccc12)C(=O)OCC (configuration not stated),> 100,–,> 100,> 100,> 100,> 100,> 100,> 100,> 100,–,–,–,–,–,–,–
Clc1ccc(-c2nn3c(C45CC6CC(CC(C6)C4)C5)nnc3s2)cc1,–,> 100,> 100,> 100,> 100,> 100,> 100,> 100,> 100,–,–,–,–,–,–,–
O=C1C(CN2CCCC2)CCCC1CN1CCCC1 (configuration not stated),3.62,0.231,> 71.1,6.26,43.5,0.29,> 56.4,37.4,32.5,–,–,–,–,–,–,–
CCOC(=O)O/N=C1/C(c2c(O)[nH]c3ccccc23)=Nc2ccccc21,31.7,16.6,33.9,26.6,15.8,30.2,48.8,8.18,23.2,–,–,–,–,–,–,–
CC(C)(C)OC(=O)NCCNC(=O)CN(CC(=O)O)C1CCCCC1N(CC(=O)O)CC(=O)O (configuration not stated),> 100,> 100,> 100,> 100,> 100,> 100,> 100,> 100,> 100,–,–,–,–,–,–,–
Cc1nc(N)nc(N)c1N1CCN(Cc2ccccc2)CC1,> 100,> 100,> 100,> 100,> 100,> 93.5,> 100,> 100,> 100,–,–,–,–,–,–,–
CC(CC(C)(C)[N+](C)(C)C)[N+](C)(C)C (configuration not stated),> 100,> 100,> 100,–,> 100,> 100,> 100,–,> 100,–,–,–,–,–,–,–
CC1CN=C(N(C)C(=O)Nc2ccc(Cl)c(Cl)c2)S1 (configuration not stated),–,> 100,> 100,91.4,> 100,–,> 100,44.2,> 100,–,–,–,–,–,–,–
CC(C)=CCC/C(C)=C/CC/C(C)=C/CSc1ccc(Cl)cc1C(=O)O,37.5,48.9,28.1,32,32.7,–,31.4,28.8,48,–,–,–,–,–,–,–
Cc1ccsc1/C=N/Nc1ccccn1,> 100,> 100,> 100,> 100,–,–,> 100,> 100,> 100,–,–,–,–,–,–,–
CCOC(=O)C12C(=O)CCN1CCc1ccccc1C2C (configuration not stated),> 100,–,> 100,> 100,–,> 100,> 100,> 100,> 100,–,–,–,–,–,–,–

SMILES,TGI (BT-549 breast) [µM],TGI (CCRF-CEM leukemia) [µM],TGI (HOP-62 NSCLC) [µM],TGI (LOX IMVI melanoma) [µM],TGI (NCI-H460 lung) [µM],TGI (NCI-H522 lung) [µM],TGI (SF-295 CNS) [µM],TGI (SK-MEL-2 melanoma) [µM],TGI (SN12C renal) [µM],GI50 (BT-549 breast) [µM],GI50 (CCRF-CEM leukemia) [µM],GI50 (LOX IMVI melanoma) [µM],GI50 (NCI-H460 lung) [µM],GI50 (SK-MEL-2 melanoma) [µM],GI50 (SN12C renal) [µM],GI50 (NCI-H522 lung) [µM]
CC(C)C[C@H](NC(=O)[C@H](CCc1ccccc1)NC(=O)c1ccc2ccccc2n1)B(O)O,0.152,–,0.658,0.247,2.47,< 0.0405,0.305,0.0407,0.486,–,–,–,–,–,–,–
CC(C)CC(NC(=O)C(N)CCC(=O)OCc1ccccc1)C(=O)NC(COCc1ccccc1)C(=O)NC(Cc1ccccc1)C(=O)ON1C(=O)CCC1=O (configuration not stated) (H-E(OBn)LS(Bn)F-OSu; configuration not given here),–,82.1,–,50.7,71.8,47.8,62.7,65.6,> 100,–,–,–,–,–,–,–
CCOC(=O)/C=C1/Nc2cc(F)c(F)cc2NC1=O,> 100,> 100,> 100,> 100,> 100,–,> 100,> 100,> 100,–,–,–,–,–,–,–
O=Cc1cc(O)c(O)c(/C=N/n2c3ccccc3c3ccccc32)c1,12.4,9.87,28,> 100,36.7,7.03,27.7,–,18.2,–,–,–,–,–,–,–
CCOC(=O)c1ccc(NC(NC(=O)CC)(C(F)(F)F)C(F)(F)F)cc1,> 100,> 100,> 100,> 100,> 100,> 100,> 100,> 100,–,–,–,–,–,–,–,–
O=[N+]([O-])c1cc(Cl)ccc1S(=O)(=O)c1cc(Cl)cc2c1NCCC2,> 100,> 100,> 100,> 100,> 100,–,> 100,> 100,> 100,–,–,–,–,–,–,–
S=C1CSc2c(cnc3ccccc23)N1,> 100,> 100,> 100,> 100,> 100,> 100,> 100,–,> 100,–,–,–,–,–,–,–
COc1ccc(/C=C/C(c2cc(OC)c(OC)c(OC)c2)n2cncn2)cc1O (configuration not stated),37.1,> 100,–,> 100,51.9,–,–,> 100,> 100,0.0712,0.032,0.0511,0.0423,0.0438,7.19,–
COC(=O)C(N)CCCC(N)C(=O)NC(C)C(=O)NC(CCC(=O)NCCCNc1ccc([N+](=O)[O-])c2[nH]c3ccccc3c(=O)c12)C(N)=O (configuration not stated),25.7,14.3,22.4,13,17.2,–,20.9,46.2,–,–,–,–,–,–,–,–
Cn1c(=O)c2[nH]c(-n3nc(-c4ccccc4)cc3N)nc2n(C)c1=O,> 100,> 100,> 100,–,> 100,–,> 100,47.2,> 100,–,–,–,–,–,–,–
Clc1cccc(N=C/C=C/Nc2cccc(Cl)c2)c1,33.2,–,30.7,20.6,35.2,29.3,24.4,–,27,–,–,–,–,–,–,–
c1csc(-c2nnc(C34CC5CC(CC(C5)C3)C4)o2)c1,–,47.4,> 100,47.1,> 100,> 100,> 100,55.4,> 100,–,–,–,–,–,–,–
c1ccc(-c2nc3ccccc3n3nnnc23)cc1,> 100,> 100,> 100,> 100,> 100,–,–,> 100,> 100,–,–,–,–,–,–,–
CCCC1C(C#N)(C#N)C(C#N)=C(N)C1(C)C(C)=O (configuration not stated),–,> 100,–,> 100,–,> 100,> 100,> 100,> 100,–,–,–,–,–,–,–
C=CCc1cccc2cc(C(=O)Nc3nc(C45CC6CC(CC(C6)C4)C5)cs3)c(=O)oc12,> 100,> 100,36.3,42.8,> 100,> 100,31.3,–,> 100,–,–,–,–,–,–,–
COc1cc(C2C3=C(N=C4SC(C(C)=O)=C(C)N42)c2ccccc2CC3)cc(OC)c1OC (configuration not stated),> 100,> 100,> 100,> 100,–,–,> 100,> 100,> 100,–,–,–,–,–,–,–
O=C1C=C(NCCc2cc(Br)c(O)c(Br)c2)C(=O)c2[nH]cnc21,–,41.7,> 100,> 100,> 100,87.4,> 100,> 100,> 100,–,–,–,–,–,–,–
COc1cc(C)cc(OC)c1/C=C/C(=O)O,> 100,–,> 100,> 100,> 100,> 100,> 100,> 100,> 100,–,–,–,–,–,–,–
CCCCNCC(O)c1cc(-c2ccc(C(F)(F)F)cc2)nc(-c2ccc(C(F)(F)F)cc2)c1 (configuration not stated),–,–,–,–,–,3.53,–,4.33,3.55,–,–,–,–,2.46,1.9,1.8
CCc1cc2c(oc3c4ccccc4ccc23)c(=O)[nH]1,> 10,> 10,–,> 10,> 10,> 10,> 10,–,–,–,–,–,–,–,–,–
O=C(c1ccccc1)n1[nH]c(=O)n(-c2ccc(Cl)cc2)c1=O,> 100,> 100,> 100,> 100,> 100,–,> 100,> 100,> 100,–,–,–,–,–,–,–
COC1=CCC2=C(CCN(C(=O)C3CCC3)C2Cc2ccc(OC)c(O)c2)C1 (configuration not stated),–,> 100,> 100,> 100,31.1,42,45.4,> 100,54.3,–,–,–,–,–,–,–
O=[N+]([O-])c1ccc(Cl)cc1N/N=C/c1cccs1,> 100,> 100,> 100,–,> 100,> 100,> 100,–,> 100,–,–,–,–,–,–,–
C/C(NC(=O)c1ccccc1)=C(/C(=O)c1ccccc1)[C@@H]1OC(C)(C)O[C@@H]1[C@H]1COC(C)(C)O1,82.4,–,> 100,45.5,65.5,36,> 100,54.9,60.4,–,–,–,–,–,–,–
